Test results from ChEMBL document CHEMBL6092214, “Design, synthesis, and pharmacological characterization of sulfonylurea-based NLRP3 inhibitors: Towards an effective therapeutic strategy for Alzheimer's disease” (Eur J Med Chem, 2024).
Calls of active or inactive are those of the source. No cut-off for these calls is given here.

Legend:
[1] = target: T1, NACHT, LRR and PYD domains-containing protein 3 (Homo sapiens, UniProt Q96P20); assay: Inhibition of NLRP3 inflammasome activation in PMA-differentiated human THP-1 cells assessed as reduction in LPS/MSU-induced IL-1beta secretion preincubated with LPS for 3 hrs followed by compound addition for 30 mins prior to MSU addition and measured after 4 hrs by ELISA method; type: cell-based
[2] = system: HEK293; assay: Cytotoxicity against HEK293 cells assessed as cell viability at 0.39 to 100 uM incubated for 24 hrs by CCK-8 method; type: toxicity, cell-based; conditions: human, hek293, 24 h, dose 0.39-100 µM
[3] = target: T1, NACHT, LRR and PYD domains-containing protein 3; assay: Inhibition of NLRP3 inflammasome activation in LPS/Nigericin induced PMA-differentiated human THP-1 cells assessed as effect on mitochondrial membrane potential by Mitotracker staining based immunofluorescence analysis; type: cell-based
[4] = target: T1, NACHT, LRR and PYD domains-containing protein 3; assay: Inhibition of NLRP3 inflammasome activation in PMA-differentiated human THP-1 cells assessed as reduction in LPS/Nigericin-induced IL-1beta secretion at 3 nM preincubated with LPS for 3 hrs followed by compound addition for 30 mins prior to nigericin addition and measured after 30 mins by ELISA method relative to control; type: cell-based; conditions: time 1.0 hrs
[5] = target: T1, NACHT, LRR and PYD domains-containing protein 3; assay: Inhibition of NLRP3 inflammasome activation in LPS/Nigericin induced PMA-differentiated human THP-1 cells assessed as effect on ROS production by measuring red fluorescence by MitoSOX staining based immunofluorescence analysis; type: cell-based
[6] = target: NACHT, LRR and PYD domains-containing protein 3 (Mus musculus) (UniProt Q8R4B8); assay: Inhibition of NLRP3 inflammasome activation in mouse BMDM cells assessed as decrease in LPS/Nigericin induced caspase-1 level by Western blot analysis; type: cell-based; conditions: dose 10-40 nM
[7] = target: T1, NACHT, LRR and PYD domains-containing protein 3; assay: Binding affinity to NLRP3 (unknown origin) assessed as dissociation constant by Surface Plasmon Resonance analysis
[8] = target: NACHT, LRR and PYD domains-containing protein 3 (Mus musculus) (UniProt Q8R4B8); assay: Inhibition of NLRP3 inflammasome activation in mouse BMDM cells assessed as effect on LPS/Nigericin induced NEK7 expression level at 10 to 40 nM by Western blot analysis; type: cell-based; conditions: dose 10-40 nM
[9] = system: Mus musculus; assay: Locomotor activity in mouse assessed as effect on total distance traveled at 30 mg/kg measured for 1.5 hrs by Open field test; type: functional, organism-based
[10] = system: Mus musculus; assay: Anti-aging activity in […] AD mouse model assessed as upregulation of IGF-1 expression at 10 mg/kg administered via gavage daily for 30 days; type: functional, organism-based; conditions: time 30.0 day
[11] = target: T1, NACHT, LRR and PYD domains-containing protein 3; assay: Inhibition of NLRP3 inflammasome activation in PMA-differentiated human THP-1 cells assessed as reduction in LPS/Nigericin-induced IL-1beta secretion at 30 nM preincubated with LPS for 3 hrs followed by compound addition for 30 mins prior to nigericin addition and measured after 30 mins by ELISA method; type: cell-based; conditions: time 1.0 hrs
[12] = target: NACHT, LRR and PYD domains-containing protein 3 (Mus musculus) (UniProt Q8R4B8); assay: Inhibition of NLRP3 inflammasome activation in mouse BMDM cells assessed as effect on LPS/Nigericin induced procaspase-1 expression level at 10 to 40 nM by Western blot analysis; type: cell-based; conditions: dose 10-40 nM
[13] = target: NACHT, LRR and PYD domains-containing protein 3 (Mus musculus) (UniProt Q8R4B8); assay: Inhibition of NLRP3 inflammasome activation in mouse BMDM cells assessed as effect on LPS/Nigericin induced ASC expression level at 10 to 40 nM by Western blot analysis; type: cell-based; conditions: dose 10-40 nM
[14] = target: NACHT, LRR and PYD domains-containing protein 3 (Mus musculus) (UniProt Q8R4B8); assay: Inhibition of NLRP3 inflammasome activation in mouse BMDM cells assessed as effect on LPS/Nigericin induced NLRP3 expression level at 10 to 40 nM by Western blot analysis; type: cell-based; conditions: dose 10-40 nM
[15] = target: NACHT, LRR and PYD domains-containing protein 3 (Mus musculus) (UniProt Q8R4B8); assay: Inhibition of NLRP3 inflammasome activation in mouse BMDM cells assessed as decrease in LPS/Nigericin induced IL-1 beta level by Western blot analysis; type: cell-based; conditions: dose 10-40 nM
[16] = Hepatotoxicity in mouse assessed as effect on AST level at 10 mg/kg measured after 30 days; type: toxicity, organism-based; conditions: in vivo, 720 h, time 30 day
[17] = target: NACHT, LRR and PYD domains-containing protein 3 (Mus musculus) (UniProt Q8R4B8); assay: Inhibition of NLRP3 inflammasome activation in mouse BMDM cells assessed as effect on LPS/Nigericin induced pro-IL-1beta expression level at 10 to 40 nM by Western blot analysis; type: cell-based; conditions: dose 10-40 nM
[18] = Hepatotoxicity in mouse assessed as effect on ALT level at 10 mg/kg measured after 30 days; type: toxicity, organism-based; conditions: in vivo, 720 h, time 30 day
[19] = organism: Mus musculus; assay: Neuroprotective activity against scopolamine-induced cognitive impairment in AD mouse model assessed as reduction in escape latency by Morris water maze test; type: functional, organism-based; conditions: dose 5-30 mg/kg
[20] = target: T1, NACHT, LRR and PYD domains-containing protein 3; assay: Inhibition of NLRP3 inflammasome activation in PMA-differentiated human THP-1 cells assessed as reduction in LPS/ATP-induced IL-1beta secretion at 30 nM preincubated with LPS for 3 hrs followed by compound addition for 30 mins prior to ATP addition and measured after 30 mins by ELISA method; type: cell-based; conditions: time 1.0 hrs
[21] = target: T1, NACHT, LRR and PYD domains-containing protein 3; assay: Inhibition of NLRP3 inflammasome activation in PMA-differentiated human THP-1 cells assessed as reduction in LPS/ATP-induced IL-1beta secretion at 3 nM preincubated with LPS for 3 hrs followed by compound addition for 30 mins prior to ATP addition and measured after 30 mins by ELISA method relative to control; type: cell-based; conditions: time 1.0 hrs
[22] = system: Mus musculus; assay: Anti-aging activity in […] AD mouse model assessed as reduction in beta-galactosidase level at 10 mg/kg administered via gavage daily for 30 days; type: functional, organism-based; conditions: time 30.0 day
[23] = system: Mus musculus; assay: Neuroprotective activity against scopolamine-induced cognitive impairment in AD mouse model assessed as reduction in escape latency at 10 mg/kg administered daily by Morris water maze test; type: functional, organism-based

T1 sequence (Q96P20 whole entry, the tested form may be a part): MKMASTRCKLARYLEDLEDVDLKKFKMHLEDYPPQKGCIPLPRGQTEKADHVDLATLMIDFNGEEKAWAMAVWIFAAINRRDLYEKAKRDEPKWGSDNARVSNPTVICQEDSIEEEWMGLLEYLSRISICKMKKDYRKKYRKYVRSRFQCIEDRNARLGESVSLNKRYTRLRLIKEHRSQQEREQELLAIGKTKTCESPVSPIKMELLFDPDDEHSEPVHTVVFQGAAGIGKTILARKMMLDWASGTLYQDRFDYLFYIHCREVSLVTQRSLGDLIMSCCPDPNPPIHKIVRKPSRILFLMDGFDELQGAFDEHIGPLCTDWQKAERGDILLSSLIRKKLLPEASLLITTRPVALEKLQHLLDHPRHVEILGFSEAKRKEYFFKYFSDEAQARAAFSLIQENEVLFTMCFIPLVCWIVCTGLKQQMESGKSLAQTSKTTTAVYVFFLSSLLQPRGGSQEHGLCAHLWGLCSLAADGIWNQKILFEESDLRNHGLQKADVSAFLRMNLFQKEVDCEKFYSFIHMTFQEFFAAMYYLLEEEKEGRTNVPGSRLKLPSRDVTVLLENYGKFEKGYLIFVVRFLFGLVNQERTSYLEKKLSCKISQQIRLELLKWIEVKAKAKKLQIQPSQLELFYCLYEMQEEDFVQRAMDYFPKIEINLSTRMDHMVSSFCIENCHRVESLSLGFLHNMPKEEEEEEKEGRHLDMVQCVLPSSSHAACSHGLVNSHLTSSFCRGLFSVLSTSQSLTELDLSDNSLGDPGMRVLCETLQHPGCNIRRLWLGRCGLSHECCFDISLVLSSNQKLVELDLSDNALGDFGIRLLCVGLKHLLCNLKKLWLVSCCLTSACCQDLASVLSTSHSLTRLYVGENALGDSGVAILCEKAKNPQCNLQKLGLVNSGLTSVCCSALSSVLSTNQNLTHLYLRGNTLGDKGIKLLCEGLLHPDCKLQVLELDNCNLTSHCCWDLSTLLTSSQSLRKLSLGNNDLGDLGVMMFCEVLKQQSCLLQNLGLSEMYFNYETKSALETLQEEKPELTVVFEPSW
NACHT, LRR and PYD domains-containing protein 3 (Mus musculus), sequence (Q8R4B8 whole entry, the tested form may be a part): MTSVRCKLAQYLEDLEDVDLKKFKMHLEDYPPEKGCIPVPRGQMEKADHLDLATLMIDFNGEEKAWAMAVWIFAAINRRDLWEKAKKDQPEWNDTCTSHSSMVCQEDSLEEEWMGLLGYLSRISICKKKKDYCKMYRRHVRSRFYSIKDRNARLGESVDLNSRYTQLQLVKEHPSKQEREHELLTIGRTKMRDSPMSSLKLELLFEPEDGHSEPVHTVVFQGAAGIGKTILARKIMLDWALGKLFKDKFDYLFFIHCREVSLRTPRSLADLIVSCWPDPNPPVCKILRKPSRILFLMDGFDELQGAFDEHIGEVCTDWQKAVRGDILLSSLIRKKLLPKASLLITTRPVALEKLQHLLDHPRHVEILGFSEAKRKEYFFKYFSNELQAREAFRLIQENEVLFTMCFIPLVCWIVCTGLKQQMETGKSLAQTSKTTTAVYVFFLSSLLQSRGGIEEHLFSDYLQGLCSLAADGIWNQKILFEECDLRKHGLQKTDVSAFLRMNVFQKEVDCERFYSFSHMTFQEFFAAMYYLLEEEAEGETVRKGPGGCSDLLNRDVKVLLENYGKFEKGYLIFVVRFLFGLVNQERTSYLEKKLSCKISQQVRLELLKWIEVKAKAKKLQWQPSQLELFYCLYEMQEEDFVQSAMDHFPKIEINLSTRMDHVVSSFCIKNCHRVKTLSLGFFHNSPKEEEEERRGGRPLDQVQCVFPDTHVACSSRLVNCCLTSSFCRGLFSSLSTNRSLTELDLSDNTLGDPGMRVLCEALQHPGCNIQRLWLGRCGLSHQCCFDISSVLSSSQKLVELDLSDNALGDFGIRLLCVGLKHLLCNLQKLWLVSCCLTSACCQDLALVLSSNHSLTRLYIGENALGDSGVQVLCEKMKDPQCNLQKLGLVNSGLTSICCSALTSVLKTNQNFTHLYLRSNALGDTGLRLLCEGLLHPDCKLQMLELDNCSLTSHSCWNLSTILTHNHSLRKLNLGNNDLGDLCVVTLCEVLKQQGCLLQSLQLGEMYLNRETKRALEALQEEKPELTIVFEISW

Compound: Cc1cc(F)ccc1-c1ccc2c(c1NC(=O)NS(=O)(=O)c1cc(C(C)(C)O)co1)CCC2
- IC50 [1]: 564 nM

Compound: CC(C)(O)c1csc(S(=O)(=O)NC(=O)Nc2c(-c3ccc([N+](=O)[O-])cc3)ccc3c2CCC3)c1
- Activity [2]: Non-toxic
- inhibition [3]: inactive
- inhibition [4]: > 50%
- inhibition [5]: inactive
- inhibition [6]: Dose-dependent-effect
- Kd [7]: 19.3 nM
- inhibition [8]: inactive
- Activity [9]: Active
- Activity [10]: Active
- inhibition [11]: Active; Compound Nearly Abolished Il-1 Beta Secretion
- inhibition [12]: inactive
- inhibition [13]: inactive
- inhibition [14]: inactive
- inhibition [15]: Dose-dependent-effect
- Activity [16]: Non-toxic
- inhibition [17]: inactive
- Activity [18]: Non-toxic
- Activity [19]: Dose-dependent-effect
- inhibition [20]: Active; Compound Nearly Abolished Il-1 Beta Secretion
- inhibition [21]: > 50%
- IC50 [1]: 12 nM
- Activity [22]: Active

Compound: CC(C)c1cccc(-c2ccc3c(c2NC(=O)NS(=O)(=O)c2cc(C(C)(C)O)co2)CCC3)c1
- IC50 [1]: > 1000 nM

Compound: O=C(Nc1c(-c2ccc([N+](=O)[O-])cc2)ccc2c1CCC2)NS(=O)(=O)CC1CCCCC1
- IC50 [1]: > 1000 nM

Compound: Cc1nn(C)cc1S(=O)(=O)NC(=O)Nc1c(-c2ccc([N+](=O)[O-])cc2)ccc2c1CCC2
- IC50 [1]: > 1000 nM

Compound: CC(=O)c1ccc(S(=O)(=O)NC(=O)Nc2c(-c3ccc([N+](=O)[O-])cc3)ccc3c2CCC3)cc1
- IC50 [1]: 426 nM

Compound: CCCCNS(=O)(=O)c1cccc(-c2ccc3c(c2NC(=O)NS(=O)(=O)c2cc(C(C)(C)O)co2)CCC3)c1
- IC50 [1]: > 1000 nM

Compound: Cc1ccsc1S(=O)(=O)NC(=O)Nc1c(-c2ccc([N+](=O)[O-])cc2)ccc2c1CCC2
- IC50 [1]: > 1000 nM

Compound: CC(C)(O)c1coc(S(=O)(=O)NC(=O)Nc2c(-c3cccc(OC(F)(F)F)c3)ccc3c2CCC3)c1
- IC50 [1]: 357 nM

Compound: O=C(Nc1c(-c2ccc([N+](=O)[O-])cc2)ccc2c1CCC2)NS(=O)(=O)N1CCCC1
- IC50 [1]: > 1000 nM

Compound: Cn1ccc(S(=O)(=O)NC(=O)Nc2c(-c3ccc([N+](=O)[O-])cc3)ccc3c2CCC3)n1
- IC50 [1]: > 1000 nM

Compound: CC(C)(O)CS(=O)(=O)NC(=O)Nc1c(-c2ccc([N+](=O)[O-])cc2)ccc2c1CCC2
- IC50 [1]: > 1000 nM

Compound: O=C(Nc1c(-c2ccc([N+](=O)[O-])cc2)ccc2c1CCC2)NS(=O)(=O)N1CCOCC1
- IC50 [1]: > 1000 nM

Compound: O=C(Nc1c(-c2ccc([N+](=O)[O-])cc2)ccc2c1CCC2)NS(=O)(=O)c1ccc2ccccc2c1
- IC50 [1]: > 1000 nM

Compound: CC(C)c1cc(I)cc(C(C)C)c1NC(=O)NS(=O)(=O)c1cc(C(C)(C)O)co1
- IC50 [1]: 31 nM

Compound: CC(C)(O)c1coc(S(=O)(=O)NC(=O)Nc2c3c(cc4c2CCC4)CCC3)c1
- Activity [23]: Active

Compound: CCCCNC(=O)c1cccc(-c2ccc3c(c2NC(=O)NS(=O)(=O)c2cc(C(C)(C)O)co2)CCC3)c1
- IC50 [1]: 84 nM

Compound: O=C(Nc1c(-c2ccc([N+](=O)[O-])cc2)ccc2c1CCC2)NS(=O)(=O)c1ccccc1
- IC50 [1]: 355 nM

Compound: CCCCOc1cccc(-c2ccc3c(c2NC(=O)NS(=O)(=O)c2cc(C(C)(C)O)co2)CCC3)c1
- IC50 [1]: 287 nM

Compound: Cc1ccc(S(=O)(=O)NC(=O)Nc2c(-c3ccc([N+](=O)[O-])cc3)ccc3c2CCC3)cc1
- IC50 [1]: > 1000 nM

Compound: CC(C)(O)c1coc(S(=O)(=O)NC(=O)Nc2c(-c3ccnc(F)c3)ccc3c2CCC3)c1
- IC50 [1]: 27 nM

Compound: COC(=O)c1csc(S(=O)(=O)NC(=O)Nc2c(-c3ccc([N+](=O)[O-])cc3)ccc3c2CCC3)c1
- IC50 [1]: 334 nM

Compound: CCCCc1ccc(-c2ccc3c(c2NC(=O)NS(=O)(=O)c2cc(C(C)(C)O)co2)CCC3)cc1
- IC50 [1]: > 1000 nM

Compound: CCOc1ccc2cc(-c3ccc4c(c3NC(=O)NS(=O)(=O)c3cc(C(C)(C)O)co3)CCC4)ccc2c1
- IC50 [1]: 72 nM

Compound: O=C(Nc1c(-c2ccc([N+](=O)[O-])cc2)ccc2c1CCC2)NS(=O)(=O)c1cc(Br)cs1
- IC50 [1]: > 1000 nM

Compound: CC(C)(C)c1cc(-c2ccc3c(c2NC(=O)NS(=O)(=O)c2cc(C(C)(C)O)co2)CCC3)cc(C(C)(C)C)c1
- IC50 [1]: > 1000 nM

Compound: COc1cccc(OC)c1-c1ccc2c(c1NC(=O)NS(=O)(=O)c1cc(C(C)(C)O)co1)CCC2
- IC50 [1]: > 1000 nM

Compound: O=C(Nc1c(-c2ccc([N+](=O)[O-])cc2)ccc2c1CCC2)NS(=O)(=O)c1cccc(Br)n1
- IC50 [1]: 212 nM

Compound: COc1cncc(-c2ccc3c(c2NC(=O)NS(=O)(=O)c2cc(C(C)(C)O)co2)CCC3)c1
- IC50 [1]: 32 nM

Compound: COCCOc1ccc(-c2ccc3c(c2NC(=O)NS(=O)(=O)c2cc(C(C)(C)O)co2)CCC3)cc1
- IC50 [1]: 244 nM

Compound: CN[C@H]1COc2c(S(=O)(=O)NC(=O)Nc3c(-c4ccc([N+](=O)[O-])cc4)ccc4c3CCC4)cnn2C1
- IC50 [1]: 260 nM

Compound: Nc1cccc(S(=O)(=O)NC(=O)Nc2c(-c3ccc([N+](=O)[O-])cc3)ccc3c2CCC3)c1
- IC50 [1]: 403 nM

Compound: CN(C)c1cccc(-c2ccc3c(c2NC(=O)NS(=O)(=O)c2cc(C(C)(C)O)co2)CCC3)c1
- IC50 [1]: > 1000 nM

Compound: CN(C)Cc1ccc(S(=O)(=O)NC(=O)Nc2c(-c3ccc([N+](=O)[O-])cc3)ccc3c2CCC3)cc1
- IC50 [1]: > 1000 nM

Compound: CC(C)(O)c1coc(S(=O)(=O)NC(=O)Nc2c(-c3ccc([N+](=O)[O-])cc3)ccc3c2CCC3)c1
- IC50 [1]: 6 nM

Compound: O=C(Nc1c(-c2ccc([N+](=O)[O-])cc2)ccc2c1CCC2)NS(=O)(=O)c1cccs1
- IC50 [1]: 54 nM

Compound: O=C(Nc1c(-c2ccc([N+](=O)[O-])cc2)ccc2c1CCC2)NS(=O)(=O)c1cnn2c1OCCC2
- IC50 [1]: 674 nM

Compound: Cc1cccc(-c2ccc3c(c2NC(=O)NS(=O)(=O)c2cc(C(C)(C)O)co2)CCC3)c1
- IC50 [1]: 76 nM

Compound: CC(C)(O)c1coc(S(=O)(=O)NC(=O)Nc2c3c(cc(Br)c2OC2CCCC2)CCC3)c1
- IC50 [1]: > 1000 nM

Compound: O=C(Nc1c(-c2ccc([N+](=O)[O-])cc2)ccc2c1CCC2)NS(=O)(=O)CCO
- IC50 [1]: > 1000 nM

Compound: O=C(Nc1c(-c2ccc([N+](=O)[O-])cc2)ccc2c1CCC2)NS(=O)(=O)c1cccnc1
- IC50 [1]: > 1000 nM
